Columns and labels:
LZK = biological target: T1, LZK (Homo sapiens, UniProt O43283); test: LZK biochemical assay (TR-FRET, MKK7 phosphorylation)
T1 construct: 10 nM LZK, catalytic domain, Carna Biosiences in assay buffer; purchased Carna Biosciences ('Carna Biosiences' [sic])
T1 sequence (O43283 168-409 limits assumed): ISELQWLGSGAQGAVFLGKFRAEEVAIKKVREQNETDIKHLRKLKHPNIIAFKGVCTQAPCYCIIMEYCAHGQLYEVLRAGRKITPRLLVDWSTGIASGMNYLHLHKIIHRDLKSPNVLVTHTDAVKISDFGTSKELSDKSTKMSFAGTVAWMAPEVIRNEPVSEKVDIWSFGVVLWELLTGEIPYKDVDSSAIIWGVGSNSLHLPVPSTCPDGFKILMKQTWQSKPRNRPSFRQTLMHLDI
Summary of the method: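 Read-out is HTRF: Eu-labelled anti-phospho-MKK7 (T275/S277) and XL665 anti-His, incubated 16 h at 32 °C, with a drop in signal marking inhibition. Reaction beforehand: 10 nM LZK kinase domain, 15 nM His-MKK7, 15 µM ATP (final) for 90 min at room temperature, pH 7.5.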

DLK = biological target: T2, DLK (Homo sapiens, UniProt Q12852); test: DLK biochemical assay (TR-FRET, MKK7 phosphorylation)
T2 construct: 10 nM DLK, catalytic domain, Carna Biosiences; purchased Carna Biosciences ('Carna Biosiences' [sic])
T2 sequence (Q12852 125-366 limits assumed): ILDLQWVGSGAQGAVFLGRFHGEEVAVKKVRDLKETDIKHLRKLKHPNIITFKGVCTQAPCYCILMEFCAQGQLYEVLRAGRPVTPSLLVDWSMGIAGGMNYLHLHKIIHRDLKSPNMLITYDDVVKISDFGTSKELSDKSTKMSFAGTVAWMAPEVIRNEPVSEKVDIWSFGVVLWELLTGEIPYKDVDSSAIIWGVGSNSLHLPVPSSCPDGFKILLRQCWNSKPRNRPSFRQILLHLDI
Summary of the method: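 TR-FRET read-out (665/Eu ratio) of MKK7 T275/S277 phosphorylation, with inhibition lowering the signal. Final conditions: 10 nM DLK catalytic domain, 15 nM MKK7, 60 μM ATP, 90 min at RT. Detection incubation 16 h at 37° C in 1536-well or 4° C in 384-well format.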

SMILES | IC50 (LZK) | IC50 (DLK)
N#CCC(n1cc(-c2cc(-c3cnn(Cc4ccccc4)c3)cc3nc(N)nn23)cn1)C(F)(F)F (centres unmarked) [II-123] | 150 nM | 53 nM
Nc1nc2cc(-c3cnn(Cc4ccccc4)c3)cc(-c3cnn(CC4CC4(F)F)c3)n2n1 (centres unmarked) [II-124] | 73 nM | 7.1 nM
Nc1nc2cc(-c3cnn(Cc4ccccc4)c3)cc(-c3cnn(C4CCOC4)c3)n2n1 (centres unmarked) [II-125] | 160 nM | 17 nM
Nc1nc2cc(-c3cnn(Cc4ccccc4)c3)cc(-c3cnn(C4CCOCC4)c3)n2n1 [II-126, 7-(1-Benzyl-1H-pyrazol-4-yl)-5-[1-(tetrahydro-2H-pyran-4-yl)-1H-pyrazol-4-yl][1,2,4]triazolo[1,5-a]pyridin-2-amine] | 220 nM | 60 nM
CC[C@@H](c1ccccc1)n1cc(-c2cc(-c3cnn(CC(F)(F)F)c3)n3nc(N)nc3c2)cn1 [II-127, 7-{1-[(1S)-1-Phenylpropyl]-1H-pyrazol-4-yl}-5-[1-(2,2,2-trifluoroethyl)-1H-pyrazol-4-yl][1,2,4]triazolo[1,5-a]pyridin-2-amine] | 99 nM | 8.4 nM
CC[C@@H](c1ccc(F)cc1)n1cc(-c2cc(-c3cnn(CC(F)(F)F)c3)n3nc(N)nc3c2)cn1 [II-128] | 160 nM | 15 nM
CCC(c1ccc(C(F)(F)F)cc1)n1cc(-c2cc(-c3cnn(CC(F)(F)F)c3)n3nc(N)nc3c2)cn1 (centres unmarked) [II-129] | 170 nM | 69 nM
CCC(c1ccc(C(F)(F)F)cc1)n1cc(-c2cc(-c3cnn(C4CCCC4)c3)n3nc(N)nc3c2)cn1 (centres unmarked) [II-132] | 120 nM | 71 nM
Nc1nc2cc(-c3cnn(Cc4ccnc(OC(F)(F)F)c4)c3)cc(-c3cnn(CC(F)(F)F)c3)n2n1 [II-135, 5-[1-(2,2,2-Trifluoroethyl)-1H-pyrazol-4-yl]-7-(1-{[2-(trifluoromethoxy)pyridin-4-yl]methyl}-1H-pyrazol-4-yl)[1,2,4]triazolo[1,5-a]pyridin-2-amine] | 70 nM | 19 nM
COc1cc(C(C(C)C)n2cc(-c3cc(-c4cnn(CC(F)(F)F)c4)n4nc(N)nc4c3)cn2)ccn1 (centres unmarked) [II-136] | 48 nM | 3.4 nM
COc1cc([C@H](C(C)C)n2cc(-c3cc(-c4cnn(CC(F)(F)F)c4)n4nc(N)nc4c3)cn2)ccn1 [II-138] | 29 nM | 1.7 nM
CC(C)C(c1ccc(C(F)(F)F)nc1)n1cc(-c2cc(-c3cnn(CC(F)(F)F)c3)n3nc(N)nc3c2)cn1 (centres unmarked) [II-139] | 27 nM | 11 nM
CC(C)[C@@H](c1ccc(C(F)(F)F)nc1)n1cc(-c2cc(-c3cnn(CC(F)(F)F)c3)n3nc(N)nc3c2)cn1 [II-140] | 13 nM | 3 nM
CC(C)C(c1ccc(C(F)(F)F)nc1)n1cc(-c2cc(-c3cnn(CC4CC4(F)F)c3)n3nc(N)nc3c2)cn1 (centres unmarked) [II-142] | 12 nM | 8.4 nM
CC(C)C(c1ccc(C(F)(F)F)nc1)n1cc(-c2cc(-c3cnn(C4CCCC4)c3)n3nc(N)nc3c2)cn1 (centres unmarked) [II-143] | 15 nM | 2.5 nM
CC(C)[C@@H](c1ccc(C(F)(F)F)nc1)n1cc(-c2cc(-c3cnn(C4CCCC4)c3)n3nc(N)nc3c2)cn1 [II-145] | 9.9 nM | 3.3 nM
Nc1nc2cc(-c3cnn(C(c4ccccc4)C4CCOCC4)c3)cc(-c3cnn(CC(F)(F)F)c3)n2n1 (centres unmarked) [II-146] | 200 nM | 3.6 nM
Nc1nc2cc(-c3cnn(C(c4ccc(C(F)(F)F)nc4)C4CCOCC4)c3)cc(-c3cnn(CC(F)(F)F)c3)n2n1 (centres unmarked) [II-149] | 4.7 nM | 2.9 nM
Nc1nc2cc(-c3cnn(C(c4ccccc4)C4CCNCC4)c3)cc(-c3cnn(CC(F)(F)F)c3)n2n1 (centres unmarked) [II-152] | 16 nM | 1.4 nM

Reference: patent US20230086702A1, “SUBSTITUTED 2-AMINO-PYRAZOLYL-[1,2,4]TRIAZOLO[1,5A]PYRIDINE DERIVATIVES AND USE THEREOF” (The Johns Hopkins University, priority 2019, published 2023)
